Data reported in paper PMC3461162 (British Journal of Cancer, 2012).

Test: Urine pharmacokinetics after single dose
Format: in vivo, human
Conditions: for CL renal: human, urine, oral, CLR, Amean (n) (range); for fe (0–24), dose fraction excreted unchanged in the urine, Amean (n) (range): zero to 24 h post dose

Q: For `COc1ccc(-c2ccc3c(N4CCOC[C@@H]4C)nc(N4CCOC[C@@H]4C)nc3n2)cc1CO` [AZD8055], which “Dose excreted unchanged in the urine” value (all dose levels, first 24 h following the single dose) is on record?
A: Its value is under 0.25%.

Q: What about the CL renal (10 mg, single dose, 10 mg solution) of the same compound?
A: Its CL renal is 1.95 mL/min.

Q: And the CL renal (20 mg, single dose, 20 mg solution)?
A: The CL renal was 1.29 mL/min.

Q: What about the CL renal (40 mg, single dose, 40 mg solution) of the same compound?
A: The CL renal was 1.78 mL/min.

Q: What about the CL renal (40 mg, single dose, 40 mg tablet) of the same compound?
A: Its CL renal is 3.68 mL/min.

Q: What about the CL renal (60 mg, single dose, 60 mg tablet) of the same compound?
A: The CL renal was 2.67 mL/min.

Q: And the CL renal (90 mg, single dose, 90 mg tablet)?
A: The CL renal was 1.75 mL/min.

Q: What about the CL renal (120 mg, single dose, 120 mg tablet) of the same compound?
A: The CL renal was 1.68 mL/min.

Q: What about the “Renal clearance” value (single dose) of the same compound?
A: Its value is “low renal clearance”.

Q: What about the “fe (0–24), dose fraction excreted unchanged in the urine, Amean (n) (range)” value (single dose, 10 mg solution) of the same compound?
A: The value was 0.0248 (4) (0.0121–0.0438) %.

Q: And the “fe (0–24), dose fraction excreted unchanged in the urine, Amean (n) (range)” value (single dose, 20 mg solution)?
A: The value was 0.0114 (3) (0.00512–0.0207) %.

Q: What about the “fe (0–24), dose fraction excreted unchanged in the urine, Amean (n) (range)” value (single dose, 40 mg solution) of the same compound?
A: Its value is 0.0227 (5) (0.00907–0.0423) %.

Q: What about the “fe (0–24), dose fraction excreted unchanged in the urine, Amean (n) (range)” value (single dose, 40 mg tablet) of the same compound?
A: Its value is 0.0881 (6) (0.0043–0.224) %.

Q: What about the “fe (0–24), dose fraction excreted unchanged in the urine, Amean (n) (range)” value (single dose, 60 mg tablet) of the same compound?
A: The value was 0.0222 (7) (0.00289–0.0712) %.

Q: And the “fe (0–24), dose fraction excreted unchanged in the urine, Amean (n) (range)” value (single dose, 90 mg tablet)?
A: Its value is 0.0231 (9) (0.00155–0.0704) %.

Q: And the “fe (0–24), dose fraction excreted unchanged in the urine, Amean (n) (range)” value (single dose, 120 mg tablet)?
A: The value was 0.0375 (7) (0.00237–0.151) %.
